In the Kinase Knowledgebase extract (Sharma et al. 2016) one finds IC50 data, which are given here for 33 compounds.

In test [1] the target is PIK3CA (human) (UniProt P42336). The test is described as follows: Assessment of PIK3CA Kinase Activity Using Homogenous Solution Phase Assay.
For test [2] the target is unchanged. Put plainly: Assessment of PIK3CA Kinase Activity Using One Step Solid Phase Assay.

As a reminder, the IC50 is the concentration needed to halve the response being measured.

Sequence of PIK3CA (human) (P42336 whole entry, looked up): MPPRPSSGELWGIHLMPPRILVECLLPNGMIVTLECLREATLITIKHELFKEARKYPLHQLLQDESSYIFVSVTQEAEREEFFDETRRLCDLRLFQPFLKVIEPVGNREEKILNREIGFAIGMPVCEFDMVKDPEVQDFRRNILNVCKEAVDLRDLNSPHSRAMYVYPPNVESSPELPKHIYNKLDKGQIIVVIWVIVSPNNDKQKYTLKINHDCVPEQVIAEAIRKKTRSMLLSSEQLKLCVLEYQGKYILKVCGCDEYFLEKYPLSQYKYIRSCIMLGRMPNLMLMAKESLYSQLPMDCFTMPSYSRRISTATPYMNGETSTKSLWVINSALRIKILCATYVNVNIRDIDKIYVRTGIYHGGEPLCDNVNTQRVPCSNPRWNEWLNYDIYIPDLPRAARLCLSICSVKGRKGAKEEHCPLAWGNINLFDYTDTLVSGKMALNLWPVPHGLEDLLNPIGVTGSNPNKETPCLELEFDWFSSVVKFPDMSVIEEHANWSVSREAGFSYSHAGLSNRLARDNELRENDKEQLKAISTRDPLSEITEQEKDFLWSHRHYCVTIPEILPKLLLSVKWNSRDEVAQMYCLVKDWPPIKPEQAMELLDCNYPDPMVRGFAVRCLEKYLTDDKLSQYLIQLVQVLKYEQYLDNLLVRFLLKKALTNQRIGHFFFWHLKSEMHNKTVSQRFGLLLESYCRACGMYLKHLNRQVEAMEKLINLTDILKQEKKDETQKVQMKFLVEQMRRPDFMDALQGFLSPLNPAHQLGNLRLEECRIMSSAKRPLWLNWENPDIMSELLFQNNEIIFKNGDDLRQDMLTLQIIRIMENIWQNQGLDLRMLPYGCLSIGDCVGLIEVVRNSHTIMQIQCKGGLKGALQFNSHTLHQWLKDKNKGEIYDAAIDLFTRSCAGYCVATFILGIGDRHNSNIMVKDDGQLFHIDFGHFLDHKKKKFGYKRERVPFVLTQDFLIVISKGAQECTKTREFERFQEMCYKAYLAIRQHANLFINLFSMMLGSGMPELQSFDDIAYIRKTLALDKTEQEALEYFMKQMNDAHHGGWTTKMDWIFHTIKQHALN

With `Nc1cccc(-c2cc(Nc3cccnc3)nc(N3CCOCC3)n2)c1`, the IC50 against PIK3CA (human) [1] and against PIK3CA (human) [2] was below 20 µM each time.

In the case of `Oc1cccc(-c2cc(Nc3cccnc3)nc(N3CCOCC3)n2)c1F`, the IC50 against PIK3CA (human) [1] and on PIK3CA (human) [2] was below 20 µM in each case.

For the compound `CCCC(=O)Oc1cccc(-c2cc(Nc3cccnc3)nc(N3CCOCC3)n2)c1`, the IC50 on PIK3CA (human) [1] and on PIK3CA (human) [2] was below 20 µM throughout.

With `COCCNc1cc(-c2cccc(O)c2)nc(N2CCOCC2)n1`, the IC50 on PIK3CA (human) [1] and at PIK3CA (human) [2] was below 20 µM each time.

Regarding `CS(=O)(=O)Nc1cccc(-c2cc(Nc3cccnc3)nc(N3CCOCC3)n2)c1`, the IC50 against PIK3CA (human) [1] and on PIK3CA (human) [2] was below 20 µM in each case.

Turning to `Oc1cccc(-c2cc(NCc3ccncc3)nc(N3CCOCC3)n2)c1`, the IC50 against PIK3CA (human) [1] and against PIK3CA (human) [2] was below 20 µM in each case.

As to `Oc1cccc(-c2cc(Nc3ccc4nn[nH]c4c3)nc(N3CCOCC3)n2)c1`, the IC50 on PIK3CA (human) [1] and on PIK3CA (human) [2] was below 20 µM each time.

For the compound `Cc1ccc(-c2cc(Nc3cccnc3)nc(N3CCOCC3)n2)cc1O`, the IC50 against PIK3CA (human) [1] and on PIK3CA (human) [2] was below 20 µM in each case.

Take `Oc1cccc(-c2cc(Nc3ncccn3)nc(N3CCOCC3)n2)c1`: the IC50 at PIK3CA (human) [1] and against PIK3CA (human) [2] was below 20 µM each time.

As to `CC(C)C(=O)Oc1cccc(-c2cc(Nc3cccnc3)nc(N3CCOCC3)n2)c1`, the IC50 at PIK3CA (human) [1] and on PIK3CA (human) [2] was below 20 µM throughout.

For the compound `COc1cccc(-c2cc(N3CCOCC3)nc(N3CCOCC3)n2)c1`, the IC50 against PIK3CA (human) [1] and against PIK3CA (human) [2] was below 20 µM each time.

In the case of `Oc1cccc(-c2cc(NCCc3ccncc3)nc(N3CCOCC3)n2)c1`, the IC50 at PIK3CA (human) [1] and against PIK3CA (human) [2] was below 20 µM throughout.

Regarding `C[C@@H]1COC[C@H](C)N1c1cc(-c2cccc(O)c2)nc(N2CCOCC2)n1`, the IC50 against PIK3CA (human) [1] and against PIK3CA (human) [2] was below 20 µM each time.

Consider `COc1cccc(N2CCN(c3cc(-c4cccc(O)c4)nc(N4CCOCC4)n3)CC2)c1`, for which the IC50 on PIK3CA (human) [1] and against PIK3CA (human) [2] was below 20 µM throughout.

With `Oc1ccc(Br)c(-c2cc(Nc3cccnc3)nc(N3CCOCC3)n2)c1`, the IC50 against PIK3CA (human) [1] and against PIK3CA (human) [2] was below 20 µM each time.

Regarding `CC(=O)Oc1cccc(-c2cc(Nc3cccnc3)nc(N3CCOCC3)n2)c1`, the IC50 at PIK3CA (human) [1] and against PIK3CA (human) [2] was below 20 µM throughout.

As to `Oc1cccc(-c2cc(N3CCCNCC3)nc(N3CCOCC3)n2)c1`, the IC50 at PIK3CA (human) [1] and against PIK3CA (human) [2] was below 20 µM each time.

As for `O=[N+]([O-])c1ccc(N2CCN(c3cc(-c4cccc(O)c4)nc(N4CCOCC4)n3)CC2)cc1`, the half-maximal inhibitory concentration (IC50) on PIK3CA (human) [1] and on PIK3CA (human) [2] was below 20 µM each time.

For the compound `COC(=O)Oc1cccc(-c2cc(Nc3cccnc3)nc(N3CCOCC3)n2)c1`, the IC50 against PIK3CA (human) [1] and against PIK3CA (human) [2] was below 20 µM throughout.

In the case of `c1cc(OCCN2CCCCC2)cc(-c2cc(Nc3ccc4[nH]ncc4c3)nc(N3CCOCC3)n2)c1`, the IC50 against PIK3CA (human) [1] and against PIK3CA (human) [2] was below 20 µM throughout.

With `CC(C)(C)C(=O)Oc1cccc(-c2cc(Nc3cccnc3)nc(N3CCOCC3)n2)c1`, the IC50 at PIK3CA (human) [1] and against PIK3CA (human) [2] was below 20 µM in each case.

For `CCC(CO)(CO)Nc1cc(-c2cccc(O)c2)nc(N2CCOCC2)n1`, the IC50 against PIK3CA (human) [1] and at PIK3CA (human) [2] was below 20 µM in each case.

Turning to `Oc1cccc(-c2cc(N3CCN(c4ccccn4)CC3)nc(N3CCOCC3)n2)c1`, the concentration for half-maximal inhibition (IC50) against PIK3CA (human) [1] and at PIK3CA (human) [2] was below 20 µM each time.

`CC(C)C(N)C(=O)Oc1cccc(-c2cc(Nc3cccnc3)nc(N3CCOCC3)n2)c1` (stereo not drawn): the IC50 against PIK3CA (human) [1] and at PIK3CA (human) [2] was below 20 µM throughout.

In the case of `C[C@@H](Nc1cc(-c2cccc(O)c2)nc(N2CCOCC2)n1)c1ccccc1`, the IC50 at PIK3CA (human) [1] and on PIK3CA (human) [2] was below 20 µM in each case.

As to `CCOc1ccc(NC(C)=O)cc1Nc1cc(-c2cccc(O)c2)nc(N2CCOCC2)n1`, the IC50 against PIK3CA (human) [1] and against PIK3CA (human) [2] was below 20 µM in each case.

With `Oc1cccc(-c2cc(NCc3ccccn3)nc(N3CCOCC3)n2)c1`, the IC50 at PIK3CA (human) [1] and on PIK3CA (human) [2] was below 20 µM each time.

Regarding `O=c1[nH]c2ccc(Nc3cc(-c4cccc(O)c4)nc(N4CCOCC4)n3)cc2[nH]1`, the concentration for half-maximal inhibition (IC50) on PIK3CA (human) [1] was below 20 µM.

For `Oc1ccc(F)c(-c2cc(Nc3cccnc3)nc(N3CCOCC3)n2)c1`, the IC50 against PIK3CA (human) [1] and against PIK3CA (human) [2] was below 20 µM in each case.

With `Oc1cccc(-c2cc(Nc3ccc(O)nc3)nc(N3CCOCC3)n2)c1`, the concentration for half-maximal inhibition (IC50) against PIK3CA (human) [1] and against PIK3CA (human) [2] was below 20 µM throughout.

For the compound `Oc1cccc(-c2cc(Nc3ccc4c(c3)OCCO4)nc(N3CCOCC3)n2)c1`, the concentration for half-maximal inhibition (IC50) at PIK3CA (human) [1] was below 20 µM.

Compound `COc1cc(Nc2cc(-c3cccc(O)c3)nc(N3CCOCC3)n2)cc(OC)c1OC` displayed an IC50 against PIK3CA (human) [1] below 20 µM.

As for `Oc1cc(-c2cc(Nc3cccnc3)nc(N3CCOCC3)n2)ccc1Cl`, the IC50 at PIK3CA (human) [1] and at PIK3CA (human) [2] was below 20 µM each time.
